Reference: patent US20250163044A1, “COMPOUNDS” (PSYLO PTY LTD, priority 2021, published 2025)
Values joined by “and” are separate entries in the source; they are usually repeats but may differ in a detail not shown here. Equal entries are not always repeated. Where two headings read alike, the source gives them in different places.

How the values were obtained:
5-HT2B receptor = target: T1, 5-HT2B receptor (Homo sapiens, UniProt P41595); test: FLIPR Ca2+ flux functional assay, agonist activity at 5-HT2B; type: cell-based; conditions: CHO-K1 cells, Ca2+ flux; for EC50: read-out: 5-HT2B EC50
T1 construct: host or cells: CHO-K1
Method: (§1) Activity at 5-HT2A, 5-HT2B and 5-HT2C receptors was determined using a FLIPR Ca2+ flux assay at WuXi AppTec Co. Ltd. (Hong Kong) Discovery Biology Unit according to their standard protocols. Briefly, stably transfected cells expressing the receptor of interest (HEK293 for 5-HT2A and 5-HT2C; CHO-K1 for 5-HT2B) were grown and plated in a 384 well plate and incubated at 37° C. and 5% CO2 overnight. A 250 mM stock solution of probenecid in FLIPR calcium assay buffer (10 mL) was freshly prepared and combined with a fluorescent dye (Fluo-4 Direct) to give a final assay concentration of 2.5 mM. Reference compounds were 4-fold serially diluted and the screening compounds were 3-fold serially diluted in 100% DMSO for 10 points using Agilent Bravo, and 750 nL was added to a 384 well compound plate using Echo along with 30 μL assay buffer. The fluorescent dye was then added to the assay plate along with assay buffer to a final volume of 40 μL. The cell plate was incubated for 50 min at 37° C. and 5% CO2 and placed into the FLIPR Tetra along with the compound plate. 10 μL of references and compounds were then transferred from the compound plate into the cell plate and the fluorescent signal was read.

[1] = In vivo pharmacokinetics: plasma and brain exposure after IP administration; parameters: species or system male C57BL/6 mice; conditions: for Kp at 0.083 h / Kp at 0.5 h: brain/plasma
Method: The systemic exposure of selected examples was studied in non-fasted male C57BL/6 mice weighing between 18.9-25.5 g. Mice had access to food and water ad libitum throughout the pre- and post-dose sampling period.
On the day of dosing, the formulation of each compound was prepared by dissolving solid compound in phosphate buffer saline (50 mM) using vortexing, creating colourless solutions (pH 6.4-6.5) for each compound.
Compounds were dosed to mice by IP injection (10 mL/kg dose volume via a 27G needle; n=9 mice per compound) and blood samples were collected at 5 and 30 min; 1, 2 and 4 h post-dose (n=3 mice per time point for each compound). A maximum of three blood samples were obtained from each mouse, with plasma samples being taken via submandibular bleed (approximately 120 μL). Once collected, blood samples were centrifuged immediately, supernatant plasma was removed, and stored at −80° C. until analysis by LCMS. In addition, at the 5 and 30 min and 4 h post-dose time points, the whole brain was rapidly removed from the carcass soon after the blood collection. The whole brains were blotted to remove excess blood, placed into pre-weighed polypropylene vials, and weighed. The brains were snap frozen in dry ice and subsequently stored frozen (−80° C.) until analysis.
Test compound standard solutions were diluted from a concentrated stock solution (32 mM in H2O) using 50% can in H2O (v/v) and a calibration curve was prepared in a matched matrix to the test samples.
Plasma: The plasma calibration curve was prepared by spiking aliquots of blank mouse plasma (25 μL) with test compound standard solutions (5 μL) and internal standard solution (5 μL of diazepam, 5 μg/mL in 50% acetonitrile in water). Test plasma samples (25 μL) were thawed, mixed, and then spiked with internal standard solution (5 μL). Plasma protein precipitation was performed by addition of acetonitrile (3-fold volume ratio) and thorough vortex mixing. Samples were centrifuged (RCF=9391×g) for 3 minutes and the supernatant (90 μL) was collected for analysis.
Tissue: Pre-weighed tissue samples (brain) were homogenised using a glass rod in buffer containing an EDTA/potassium fluoride solution (0.1 M/4 mg/mL) as a stabilisation cocktail to minimise the potential for ex vivo degradation (3 mL cocktail/g tissue). The tissue homogenate was briefly centrifuged (RCF=79×g) for 10 seconds to separate the foam layer before transferring an aliquot of the tissue homogenate (200 μL) to a fresh Eppendorf tube for sample extraction. Calibration standards were prepared by spiking blank brain homogenate (200 μL) with the solution standards (10 μL) and the internal standard (10 μL). Study samples were similarly prepared, except that acetonitrile (10 μL) was added instead of solution standards to maintain the same volume. Protein precipitation was carried out by the addition of a 3-fold volume of acetonitrile, followed by vortex mixing and centrifugation (RCF=9391×g) for 3 min to recover the supernatant for analysis.
Replicate analysis: Triplicate analytical replicate (ARs) samples were prepared similarly to the standards for each sample type at three concentrations (50, 500 and 2,000 ng/mL) and repeat injections of these ARs were included throughout the analytical run to assess assay performance. The extraction of the test compound from the standards and ARs were conducted as described above.

5-HT2C receptor = target: T2, 5-HT2C receptor (Homo sapiens, UniProt P28335); test: FLIPR Ca2+ flux functional assay, agonist activity at 5-HT2C; type: cell-based; conditions: HEK293 cells, Ca2+ flux; for EC50: read-out: 5-HT2C EC50
T2 construct: host or cells: HEK293
T2 sequence (P28335 33-458): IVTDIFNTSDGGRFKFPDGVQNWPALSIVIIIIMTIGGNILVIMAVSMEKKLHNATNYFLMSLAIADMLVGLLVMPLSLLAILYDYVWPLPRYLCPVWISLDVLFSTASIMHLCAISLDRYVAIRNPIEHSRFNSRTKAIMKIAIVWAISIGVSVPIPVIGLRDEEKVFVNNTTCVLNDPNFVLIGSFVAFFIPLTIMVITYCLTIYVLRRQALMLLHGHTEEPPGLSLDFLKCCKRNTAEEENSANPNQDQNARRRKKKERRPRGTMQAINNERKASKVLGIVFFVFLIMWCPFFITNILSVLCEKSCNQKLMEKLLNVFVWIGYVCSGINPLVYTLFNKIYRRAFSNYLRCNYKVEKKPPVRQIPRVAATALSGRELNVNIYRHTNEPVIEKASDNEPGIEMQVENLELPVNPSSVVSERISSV
Method: as §1

5-HT2A receptor = target: T3, 5-HT2A receptor (Homo sapiens, UniProt P28223); test: FLIPR Ca2+ flux functional assay, agonist activity at 5-HT2A; type: cell-based; conditions: HEK293 cells, Ca2+ flux; for EC50: read-out: 5-HT2A EC50
T3 construct: host or cells: HEK293
Method: as §1

[2] = 0.083 h, IP 10 mg/kg, individual mouse, 10 mg/kg
[3] = 0.5 h, IP 10 mg/kg, individual mouse, 10 mg/kg
[4] = 4 h, IP 10 mg/kg, individual mouse
[5] = mouse, plasma, male C57BL/6 mice, IP 10 mg/kg

T3 sequence (P28223 whole entry): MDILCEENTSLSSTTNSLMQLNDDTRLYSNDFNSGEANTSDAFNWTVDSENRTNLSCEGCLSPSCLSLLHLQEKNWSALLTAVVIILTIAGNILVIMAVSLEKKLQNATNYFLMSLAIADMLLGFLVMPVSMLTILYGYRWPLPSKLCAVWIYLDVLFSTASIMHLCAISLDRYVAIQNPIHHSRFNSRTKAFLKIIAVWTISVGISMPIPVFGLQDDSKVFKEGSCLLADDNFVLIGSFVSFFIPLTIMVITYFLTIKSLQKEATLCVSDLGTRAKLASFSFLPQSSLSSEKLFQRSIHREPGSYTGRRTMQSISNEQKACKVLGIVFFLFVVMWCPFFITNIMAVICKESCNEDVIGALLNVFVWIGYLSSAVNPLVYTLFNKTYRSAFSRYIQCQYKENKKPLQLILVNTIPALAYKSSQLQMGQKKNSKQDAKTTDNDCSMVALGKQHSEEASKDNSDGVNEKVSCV
T1 sequence (P41595 whole entry): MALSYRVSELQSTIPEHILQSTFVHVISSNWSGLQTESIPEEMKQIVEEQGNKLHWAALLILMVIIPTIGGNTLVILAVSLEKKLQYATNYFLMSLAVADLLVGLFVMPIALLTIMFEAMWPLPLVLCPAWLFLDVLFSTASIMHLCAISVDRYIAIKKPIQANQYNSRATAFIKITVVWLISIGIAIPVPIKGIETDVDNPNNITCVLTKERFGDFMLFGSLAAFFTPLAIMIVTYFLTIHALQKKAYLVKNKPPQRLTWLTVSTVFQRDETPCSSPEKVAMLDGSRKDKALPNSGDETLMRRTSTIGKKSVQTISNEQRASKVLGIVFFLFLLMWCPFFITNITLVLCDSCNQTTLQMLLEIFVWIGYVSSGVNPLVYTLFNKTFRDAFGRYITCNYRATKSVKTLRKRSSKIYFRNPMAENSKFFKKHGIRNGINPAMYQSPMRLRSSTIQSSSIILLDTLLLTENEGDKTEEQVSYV

COc1nccc2[nH]cc(CCN(C)C)c12 [Example P-5, 2-(4-methoxy-1H-pyrrolo[3,2-c]pyridin-3-yl)-N,N-dimethylethan-1-amine]
Emax (5-HT2B receptor): -0.87% | EC50 (5-HT2B receptor): > 10000 nM | B:P Ratio, Individual [1, 2]: 0.19 and 0.16 | Plasma Concentration, Individual [1, 2]: 5880 nM and 1970 nM and 8280 nM | concentration at 0.5 h ([1]; 0.083 h, IP 10 mg/kg, individual mouse, 10 mg/kg, read-out: Brain Parenchyma Concentration, Individual): 230 nM and 365 nM and 1360 nM | B:P Ratio, Individual [1, 3]: 2.5 and 2.4 | Plasma Concentration, Individual [1, 3]: 985 nM and 776 nM | concentration at 0.5 h ([1]; 0.5 h, IP 10 mg/kg, individual mouse, 10 mg/kg, read-out: Brain Parenchyma Concentration, Individual): 2420 nM and 1860 nM | Brain Parenchyma Concentration, Individual [1, 4]: <LLQ | Plasma Concentration, Individual [1, 4]: <LLQ | concentration at 0.083 h ([1]; male, C57BL/6, mouse, brain, ip, 10 mg/kg, 0.083 h, n = 3, read-out: Brain Parenchyma Concentration, Mean ± SD): 984 ± 540 nM | concentration at 0.5 h ([1]; male, C57BL/6, mouse, brain, ip, 10 mg/kg, 0.5 h, individual mouse, read-out: Brain Parenchyma Concentration, Individual): 1610 nM | concentration at 0.5 h ([1]; male, C57BL/6, mouse, brain, ip, 10 mg/kg, 0.5 h, n = 3, read-out: Brain Parenchyma Concentration, Mean ± SD): 1970 ± 414 nM | Kp at 0.083 h ([1]; male, C57BL/6, mouse, ip, 10 mg/kg, 0.083 h, individual mouse, read-out: B:P Ratio, Individual): 0.21 | Kp at 0.083 h ([1]; male, C57BL/6, mouse, ip, 10 mg/kg, 0.083 h, n = 3, read-out: B:P Ratio, Mean ± SD): 0.19 ± 0.022 | Kp at 0.5 h ([1]; male, C57BL/6, mouse, ip, 10 mg/kg, 0.5 h, individual mouse, read-out: B:P Ratio, Individual): 2 | Kp at 0.5 h ([1]; male, C57BL/6, mouse, ip, 10 mg/kg, 0.5 h, n = 3, read-out: B:P Ratio, Mean ± SD): 2.3 ± 0.26 | concentration at 0.083 h ([1]; male, C57BL/6, mouse, plasma, ip, 10 mg/kg, 0.083 h, n = 3, read-out: Plasma Concentration, Mean ± SD): 5380 ± 3180 nM | concentration at 0.5 h ([1]; male, C57BL/6, mouse, plasma, ip, 10 mg/kg, 0.5 h, individual mouse, read-out: Plasma Concentration, Individual): 815 nM | concentration at 0.5 h ([1]; male, C57BL/6, mouse, plasma, ip, 10 mg/kg, 0.5 h, n = 3, read-out: Plasma Concentration, Mean ± SD): 859 ± 111 nM | Cmax [1, 5]: 5380 nM | Tmax [1, 5]: 5 min | AUC(0-t) ([1]; mouse, plasma, male C57BL/6 mice, IP 10 mg/kg, read-out: Plasma AUC0-last): 1.63 µM·h | Emax (5-HT2C receptor): 79.1% | EC50 (5-HT2C receptor): 38.4 nM | Emax (5-HT2A receptor): 56.2% | EC50 (5-HT2A receptor): 24.4 nM

CN(C)CCc1c[nH]c2nccc(F)c12 [Example P-32, N,N-dimethyl-2-(4-fluoro-1H-pyrrolo[2,3-b]pyridin-3-yl)ethan-1-amine]
Emax (5-HT2B receptor): 0.14% | EC50 (5-HT2B receptor): > 10000 nM | Emax (5-HT2C receptor): 0.61% | EC50 (5-HT2C receptor): > 10000 nM | Emax (5-HT2A receptor): 57.8% | EC50 (5-HT2A receptor): 414 nM

CCN(C)CCc1c[nH]c2nccc(F)c12 [Example P-33, N-ethyl-N-methyl-2-(4-fluoro-1H-pyrrolo[2,3-b]pyridin-3-yl)ethan-1-amine]
Emax (5-HT2B receptor): 0.01% | EC50 (5-HT2B receptor): > 10000 nM | Emax (5-HT2C receptor): 0.33% | EC50 (5-HT2C receptor): > 10000 nM | Emax (5-HT2A receptor): 54.7% | EC50 (5-HT2A receptor): 641 nM

CCN(CC)CCc1c[nH]c2ccnc(OC)c12 [Example P-34, N,N-diethyl-2-(4-methoxy-1H-pyrrolo[3,2-c]pyridin-3-yl)ethan-1-amine]
Emax (5-HT2B receptor): 14.7% | EC50 (5-HT2B receptor): > 10000 nM | Emax (5-HT2C receptor): 91.7% | EC50 (5-HT2C receptor): 682 nM | Emax (5-HT2A receptor): 82.6% | EC50 (5-HT2A receptor): 150 nM

CCCN(CCC)CCc1c[nH]c2ccnc(OC)c12 [Example P-35, N,N-dipropyl-2-(4-methoxy-1H-pyrrolo[3,2-c]pyridin-3-yl)ethan-1-amine]
Emax (5-HT2B receptor): 74.7% | EC50 (5-HT2B receptor): 78.5 nM | Emax (5-HT2C receptor): 55.6% | EC50 (5-HT2C receptor): 7180 nM | Emax (5-HT2A receptor): 82.2% | EC50 (5-HT2A receptor): 79 nM

COc1nccc2[nH]cc(CCN(C(C)C)C(C)C)c12 [Example P-36, N,N-diisopropyl-2-(4-methoxy-1H-pyrrolo[3,2-c]pyridin-3-yl)ethan-1-amine]
Emax (5-HT2B receptor): 48.9% | EC50 (5-HT2B receptor): 96.4 nM | Emax (5-HT2C receptor): 38.4% | EC50 (5-HT2C receptor): > 10000 nM | Emax (5-HT2A receptor): 114% | EC50 (5-HT2A receptor): 77.1 nM

CCN(C)CCc1c[nH]c2ccnc(OC)c12 [Example P-37, N-ethyl-2-(4-methoxy-1H-pyrrolo[3,2-c]pyridin-3-yl)-N-methylethan-1-amine]
Emax (5-HT2B receptor): 2.6% | EC50 (5-HT2B receptor): > 10000 nM | Emax (5-HT2C receptor): 105% | EC50 (5-HT2C receptor): 533 nM | Emax (5-HT2A receptor): 82.8% | EC50 (5-HT2A receptor): 86.8 nM

COc1nccc2[nH]cc(CCN(C)C(C)C)c12 [Example P-38, N-(2-(4-methoxy-1H-pyrrolo[3,2-c]pyridin-3-yl)ethyl)-N-methylpropan-2-amine]
Emax (5-HT2B receptor): 19.6% | EC50 (5-HT2B receptor): 610 nM | Emax (5-HT2C receptor): 70.2% | EC50 (5-HT2C receptor): 1920 nM | Emax (5-HT2A receptor): 83.1% | EC50 (5-HT2A receptor): 77.7 nM

CCN(CC)CCc1n[nH]c2cccc(OC)c12 [Example P-42, 2-(4-methoxy-1H-indazol-3-yl)-N,N-diethylethan-1-amine]
EC50 (5-HT2B receptor): > 10000 nM | EC50 (5-HT2C receptor): 3490 nM | EC50 (5-HT2A receptor): 2980 nM

CCN(CC)CCc1n[nH]c2cccc(O)c12 [Example P-43, 3-(2-(diethylamino)ethyl)-1H-indazol-4-ol]
EC50 (5-HT2B receptor): > 10000 nM | EC50 (5-HT2C receptor): > 10000 nM | EC50 (5-HT2A receptor): 2180 nM

CCCN(CCC)CCc1n[nH]c2cccc(OC)c12 [Example P-44, 2-(4-methoxy-1H-indazol-3-yl)-N,N-dipropylethan-1-amine]
EC50 (5-HT2B receptor): 490 nM | EC50 (5-HT2C receptor): 1700 nM | EC50 (5-HT2A receptor): 259 nM

CCCN(CCC)CCc1n[nH]c2cccc(O)c12 [Example P-45, 3-(2-(dipropylamino)ethyl)-1H-indazol-4-ol]
EC50 (5-HT2B receptor): > 10000 nM | EC50 (5-HT2C receptor): > 10000 nM | EC50 (5-HT2A receptor): 160 nM

CCN(CC)CCc1n[nH]c2ccc(OC)cc12 [Example P-48, N,N-diethyl-2-(5-methoxy-1H-indazol-3-yl)ethan-1-amine]
EC50 (5-HT2B receptor): > 10000 nM | EC50 (5-HT2C receptor): > 10000 nM | EC50 (5-HT2A receptor): 6990 nM

CCCN(CCC)CCc1n[nH]c2ccc(OC)cc12 [Example P-49, N,N-dipropyl-2-(5-methoxy-1H-indazol-3-yl)ethan-1-amine]
EC50 (5-HT2B receptor): > 10000 nM | EC50 (5-HT2C receptor): > 10000 nM | EC50 (5-HT2A receptor): 1390 nM

CCN(C)CCc1n[nH]c2ccc(OC)cc12 [Example P-51, N-ethyl-2-(5-methoxy-1H-indazol-3-yl)-N-methylethan-1-amine]
EC50 (5-HT2B receptor): > 10000 nM | EC50 (5-HT2C receptor): > 10000 nM | EC50 (5-HT2A receptor): 526 nM

COc1ccc2[nH]nc(CCN(C)C(C)C)c2c1 [Example P-52, N-(2-(5-methoxy-1H-indazol-3-yl)ethyl)-N-methylpropan-2-amine]
EC50 (5-HT2B receptor): > 10000 nM | EC50 (5-HT2C receptor): > 10000 nM | EC50 (5-HT2A receptor): 1840 nM

COc1cccc2[nH]nc(CCN(C)C)c12 [Example P-55, 2-(4-methoxy-1H-indazol-3-yl)-N,N-dimethylethan-1-amine]
EC50 (5-HT2B receptor): > 10000 nM | EC50 (5-HT2C receptor): 367 nM | EC50 (5-HT2A receptor): 256 nM

CN(C)CCc1n[nH]c2cccc(O)c12 [Example P-56, 3-(2-(dimethylamino)ethyl)-1H-indazol-4-ol]
Emax (5-HT2B receptor): -0.39% | EC50 (5-HT2B receptor): > 10000 nM | Emax (5-HT2C receptor): 63.6% | EC50 (5-HT2C receptor): 1260 nM | Emax (5-HT2A receptor): 50.5% | EC50 (5-HT2A receptor): 794 nM
